Source: patent US9499550B2 (BRISTOL-MYERS SQUIBB COMPANY, priority 2012, dated 2016)
Where two headings read alike, the source gives them in different places.

What was measured:
[1] = test system: HCV genotype 1b (Con1) replicon in HUH-7 cells; experiment: HCV replicon luciferase reporter assay, genotype 1b; assay type: cell-based; conditions: Hepatitis C virus, Huh-7, 72 h, 3 days incubation, read-out: LE_1b (EC50, range)
Summary of the method: (§1)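 Replicon inhibition for both genotypes was measured as Renilla luciferase signal (EnduRen, 7.5 μM final, 2 h) after 3-day, 37° C exposure of replicon-bearing HUH-7 cells in 4% FCS DMEM, 0.5% DMSO. The 1b construct carries S1179I; the 1a H77 construct carries P1496L and S2204I. Twenty-point, 3-fold dilutions were fitted four-parametrically for EC50, and CC50 was taken from multiplexed Cell Titer-Blue.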

[2] = test system: HCV genotype 1a (H77 strain) replicon in HUH-7 cells; experiment: HCV replicon luciferase reporter assay, genotype 1a; assay type: cell-based; conditions: Hepatitis C virus, Huh-7, 72 h, 3 days incubation, read-out: LE_1a (EC50, range)
Summary of the method: as §1

[3] = HCV genotype 1b replicon luciferase
[4] = HCV genotype 1a replicon luciferase
[5] = HCV genotype 1b replicon luciferase assay, range class
[6] = HCV genotype 1a replicon luciferase assay, range class

SMILES	EC50 [1, 3] [nM]	EC50 [2, 4] [nM]	EC50 [1, 5] [nM]	EC50 [2, 6] [nM]	other results
CC[C@@H]1C[C@H](C)CC/C=C\[C@@H]2C[C@@]2(C(=O)NS(=O)(=O)C2(C)CC2)NC(=O)[C@@H]2C[C@@H](Oc3ncc(F)c4cc(OC)ccc34)CN2C(=O)[C@H]1NC(=O)OC(C)(C)C [Compound 4383, tert-butyl ((2R,6S,7R,9R,13aS,14aR,16aS,Z)-7-ethyl-2-((4-fluoro-6-methoxyisoquinolin-1-yl)oxy)-9-methyl-14a-(((1-methylcyclopropyl)sulfonyl)carbamoyl)-5,16-dioxo-1,2,3,5,6,7,8,9,10,11,13a,14,14a,15,16,16a-hexadecahydrocyclopropa[e]pyrrolo[1,2-a][1,4]diazacyclopentadecin-6-yl)carbamate]	0.51 to 1	1.01 to 5	–	–	–
CC[C@@H]1C[C@@H](C)CC/C=C\[C@@H]2C[C@@]2(C(=O)NS(=O)(=O)C2(C)CC2)NC(=O)[C@@H]2C[C@@H](Oc3nc(OC)cc4cc(OC)ccc34)CN2C(=O)[C@H]1NC(=O)OC1(C(F)(F)F)CCCOC1 (stereo partly drawn) [Compound 1178, 3-(trifluoromethyl)tetrahydro-2H-pyran-3-yl((2R,6S,7R,9S,13aS,14aR,16aS,Z)-2-((3,6-dimethoxyisoquinolin-1-yl)oxy)-7-ethyl-9-methyl-14a-(((1-methylcyclopropyl)sulfonyl)carbamoyl)-5,16-dioxo-1,2,3,5,6,7,8,9,10,11,13a,14,14a,15,16,16a-hexadecahydrocyclopropa[e]pyrrolo[1,2-a][1,4]diazacyclopentadecin-6-yl)carbamate]	–	–	< 5.46	< 5.46	–
C[C@H]1CC/C=C\[C@@H]2C[C@@]2(C(=O)NS(=O)(=O)C2(C)CC2)NC(=O)[C@@H]2C[C@@H](Oc3nccc4c5c(ccc34)N(C)CCO5)CN2C(=O)[C@@H](NC(=O)c2ccc(N(C)C)cc2)[C@H](C)C1 [Compound 5303, (2R,6S,7R,9S,13aS,14aR,16aS,Z)-6-(4-(dimethylamino)benzamido)-7,9-dimethyl-2-((4-methyl-3,4-dihydro-2H-[1,4]oxazino[2,3-f]isoquinolin-7-yl)oxy)-N-((1-methylcyclopropyl)sulfonyl)-5,16-dioxo-1,2,3,5,6,7,8,9,10,11,13a,14,14a,15,16,16a-hexadecahydrocyclopropa[e]pyrrolo[1,2-a][1,4]diazacyclopentadecine-14a-carboxamide]	< 5.46	4.82 to 103	–	–	–
CCOc1nnc(O[C@@H]2C[C@H]3C(=O)N[C@]4(C(=O)NS(=O)(=O)C5CC5)C[C@H]4/C=C\CC[C@@H](C)C[C@@H](CC)[C@H](NC(=O)OC(C)(C)C(F)(F)F)C(=O)N3C2)c2ccccc12 [Compound 5045, 1,1,1-trifluoro-2-methylpropan-2-yl((2R,6S,7R,9R,13aS,14aR,16aS,Z)-14a-((cyclopropylsulfonyl)carbamoyl)-2-((4-ethoxyphthalazin-1-yl)oxy)-7-ethyl-9-methyl-5,16-dioxo-1,2,3,5,6,7,8,9,10,11,13a,14,14a,15,16,16a-hexadecahydrocyclopropa[e]pyrrolo[1,2-a][1,4]diazacyclopentadecin-6-yl)carbamate]	< 5.46	< 5.46	–	–	–
COCCOc1cnc(O[C@@H]2C[C@H]3C(=O)N[C@]4(C(=O)NS(=O)(=O)C5(C)CC5)C[C@H]4/C=C\CC[C@@H](C)C[C@@H](C)[C@H](NC(=O)OC(C)(C)C)C(=O)N3C2)c2ccccc12 [Compound 1027, tert-butyl ((2R,6S,7R,9R,13aS,14aR,16aS,Z)-2-((4-(2-methoxyethoxyl)isoquinolin-1-yl)oxy)-7,9-dimethyl-14a-(((1-methylcyclopropyl)sulfonyl)carbamoyl)-5,16-dioxo-1,2,3,5,6,7,8,9,10,11,13a,14,14a,15,16,16a-hexadecahydrocyclopropa[e]pyrrolo[1,2-a][1,4]diazacyclopentadecin-6-yl)carbamate]	–	–	< 5.46	< 5.46	–
COc1ccc2c(O[C@@H]3C[C@H]4C(=O)N[C@]5(C(=O)NS(=O)(=O)C6CC6)C[C@H]5/C=C\CC[C@H](C)C[C@@H](C)[C@H](NC(=O)OC(C)(C)C(F)(F)F)C(=O)N4C3)nc(-c3ccc(OC)c(F)c3)cc2c1 [Compound 3055, 1,1,1-trifluoro-2-methylpropan-2-yl((2R,6S,7R,9S,13aS,14aR,16aS,Z)-14a-((cyclopropylsulfonyl)carbamoyl)-2-((3-(3-fluoro-4-methoxyphenyl)-6-methoxyisoquinolin-1-yl)oxy)-7,9-dimethyl-5,16-dioxo-1,2,3,5,6,7,8,9,10,11,13a,14,14a,15,16,16a-hexadecahydrocyclopropa[e]pyrrolo[1,2-a][1,4]diazacyclopentadecin-6-yl)carbamate]	–	–	< 5.46	4.82 to 103	–
CCOc1nnc(O[C@@H]2C[C@H]3C(=O)N[C@]4(C(=O)NS(=O)(=O)C5(C)CC5)C[C@H]4/C=C\CC[C@H](C)C[C@@H](CC)[C@H](NC(=O)OC(C)(C)C(C)(F)F)C(=O)N3C2)c2ccccc12 [Compound 5050, 3,3-difluoro-2-methylbutan-2-yl((2R,6S,7R,9S,13aS,14aR,16aS,Z)-2-((4-ethoxyphthalazin-1-yl)oxy)-7-ethyl-9-methyl-14a-(((1-methylcyclopropyl)sulfonyl)carbamoyl)-5,16-dioxo-1,2,3,5,6,7,8,9,10,11,13a,14,14a,15,16,16a-hexadecahydrocyclopropa[e]pyrrolo[1,2-a][1,4]diazacyclopentadecin-6-yl)carbamate]	4.82 to 103	4.82 to 103	–	–	–
C[C@@H]1CC/C=C\[C@@H]2C[C@@]2(C(=O)NS(=O)(=O)C2(C)CC2)NC(=O)[C@@H]2C[C@@H](Oc3nccc4c5c(ccc34)OCCO5)CN2C(=O)[C@@H](NC(=O)OC(C)(C)C(F)(F)F)[C@H](C)C1 [Compound 5247, 1,1,1-trifluoro-2-methylpropan-2-yl((2R,6S,7R,9R,13aS,14aR,16aS,Z)-2-((2,3-dihydro-[1,4]dioxino[2,3-f]isoquinolin-7-yl)oxy)-7,9-dimethyl-14a-(((1-methylcyclopropyl)sulfonyl)carbamoyl)-5,16-dioxo-1,2,3,5,6,7,8,9,10,11,13a,14,14a,15,16,16a-hexadecahydrocyclopropa[e]pyrrolo[1,2-a][1,4]diazacyclopentadecin-6-yl)carbamate]	< 5.46	< 5.46	–	–	–
COc1ccc2c(O[C@@H]3C[C@H]4C(=O)N[C@]5(C(=O)NS(=O)(=O)C6(CF)CC6)C[C@H]5/C=C\CC[C@@H](C)C[C@@H](C)[C@H](NC(=O)OC5(C(F)(F)F)CCCOC5)C(=O)N4C3)nc(C(F)(F)F)cc2c1 (stereo partly drawn) [Compound 1173, 3-(trifluoromethyl)tetrahydro-2H-pyran-3-yl((2R,6S,7R,9R,13aS,14aR,16aS,Z)-14a-(((1-(fluoromethyl)cyclopropyl)sulfonyl)carbamoyl)-2-((6-methoxy-3-(trifluoromethyl)isoquinolin-1-yl)oxy)-7,9-dimethyl-5,16-dioxo-1,2,3,5,6,7,8,9,10,11,13a,14,14a,15,16,16a-hexadecahydrocyclopropa[e]pyrrolo[1,2-a][1,4]diazacyclopentadecin-6-yl)carbamate]	–	–	< 5.46	< 5.46	–
COc1ccc2c(O[C@@H]3C[C@H]4C(=O)N[C@]5(C(=O)NS(=O)(=O)C6(C)CC6)C[C@H]5/C=C\CC[C@@H](C)C[C@@H](C)[C@H](NC(=O)OCC5(C)CC5)C(=O)N4C3)nc(N3CCOCC3)cc2c1 [Compound 3091, (1-methylcyclopropyl)methyl ((2R,6S,7R,9R,13aS,14aR,16aS,Z)-2-((6-methoxy-3-morpholinoisoquinolin-1-yl)oxy)-7,9-dimethyl-14a-(((1-methylcyclopropyl)sulfonyl)carbamoyl)-5,16-dioxo-1,2,3,5,6,7,8,9,10,11,13a,14,14a,15,16,16a-hexadecahydrocyclopropa[e]pyrrolo[1,2-a][1,4]diazacyclopentadecin-6-yl)carbamate]	–	–	< 5.46	< 5.46	–
CC[C@@H]1C[C@H](C)CC/C=C\[C@@H]2C[C@@]2(C(=O)NS(=O)(=O)C2(C)CC2)NC(=O)[C@@H]2C[C@@H](Oc3ncc(OC)c4ccc(F)cc34)CN2C(=O)[C@H]1NC(=O)OC(C)(C)C [Compound 4181, tert-butyl (2R,6S,7R,9R,13aS,14aR,16aS,Z)-7-ethyl-2-(7-fluoro-4-methoxyisoquinolin-1-yloxy)-9-methyl-14a-(1-methylcyclopropylsulfonylcarbamoyl)-5,16-dioxo-1,2,3,5,6,7,8,9,10,11,13a,14,14a,15,16,16a-hexadecahydrocyclopropa[e]pyrrolo[1,2-a][1,4]diazacyclopentadecin-6-ylcarbamate]	< 5.46	< 5.46	–	–	–
CC[C@@H]1C[C@H](C)CC/C=C\[C@@H]2C[C@@]2(C(=O)NS(=O)(=O)C2CC2)NC(=O)[C@@H]2C[C@@H](Oc3nccc4c(OC)cccc34)CN2C(=O)[C@H]1NC(=O)NC(C)(C)C [Compound 3030, (2R,6S,7R,9R,13aS,14aR,16aS,Z)-6-(3-(tert-butyl)ureido)-N-(cyclopropylsulfonyl)-7-ethyl-2-((5-methoxyisoquinolin-1-yl)oxy)-9-methyl-5,16-dioxo-1,2,3,5,6,7,8,9,10,11,13a,14,14a,15,16,16a-hexadecahydrocyclopropa[e]pyrrolo[1,2-a][1,4]diazacyclopentadecine-14a-carboxamide]	–	–	< 5.46	< 5.46	–
C[C@@H]1CC/C=C\[C@@H]2C[C@@]2(C(=O)NS(=O)(=O)C2(C)CC2)NC(=O)[C@@H]2C[C@@H](Oc3ncc(OC(=O)OC(C)(C)C(F)(F)F)c4ccccc34)CN2C(=O)[C@@H](NC(=O)OC(C)(C)C(F)(F)F)[C@H](C)C1 [Compound 4133]	–	–	–	–	EC50 ([1]; GETYPE1B, HCV genotype 1b replicon luciferase): < 5.46 nM; EC50 ([2]; GETYPE1A, HCV genotype 1a replicon luciferase): 4.82 to 103 nM
